Values of other authors, collected in article PMC4537502 (Psychopharmacology, 2015).

Columns and labels:
D2R [1] = system: D2R; design: method as in Tolboom et al. [2015]; details: human subjects, ref Tolboom et al. [2015], cited from earlier work
striatal D2Rs = system: striatal D2Rs; design: method as in Ekesbo et al. ([1999]); details: rhesus monkeys, continuous infusion 3 mg/kg/h, ref Ekesbo et al. ([1999]); cited from earlier work
D2R [2] = biological target: D2R; design: method as in Pettersson et al. [2010]; details: ref Pettersson et al. [2010]; read-out: high-affinity Ki at D2R; cited from earlier work
sigma-1R = details: ref Sahlholm et al. [2013], cited from earlier work

Compound: CCCN1CCC[C@@H](c2cccc(S(C)(=O)=O)c2)C1 [(−)-OSU6162]
- D2R occupancy (D2R [1]; doses 15 to 90 mg (0.14 to 1.25 mg/kg)): 2 to 33%
- level at which the dose-occupancy curve appeared to level off (D2R [1]): 40%
- displacement of ^11C-raclopride (striatal D2Rs): 76%
- Ki (D2R [2]): 760 nM
- Ki (sigma-1R; ^3H-(+)-pentazocine competition, read-out: high-affinity Ki at sigma-1R): ~360 nM
- affinity for sigma-1R relative to D2R (sigma-1R; Pettersson et al. [2010]): about two times higher affinity for sigma-1R than for D2R
